Data taken from patent US20260070902A1, “SULFONYL DERIVATIVES AS CCR6 INHIBITORS” (Hoffmann-La Roche Inc., priority 2022, published 2026).

Key:
human CCR6 [1] = molecular target: T1, human CCR6 (Homo sapiens, UniProt P51684); assay: Human CCR6-CRE reporter assay; assay type: cell-based; parameters: The second construct contained the open reading frame of human CCR6 in the pUNO1 backbone; host or cells: 293FT cells; conditions: relative -Log IC50; 293FT cells transfected with human CCR6 and CRE-luciferase reporter; 6 μM Forskolin, 6 nM CCL20; 5 h
T1 sequence (P51684 1-374): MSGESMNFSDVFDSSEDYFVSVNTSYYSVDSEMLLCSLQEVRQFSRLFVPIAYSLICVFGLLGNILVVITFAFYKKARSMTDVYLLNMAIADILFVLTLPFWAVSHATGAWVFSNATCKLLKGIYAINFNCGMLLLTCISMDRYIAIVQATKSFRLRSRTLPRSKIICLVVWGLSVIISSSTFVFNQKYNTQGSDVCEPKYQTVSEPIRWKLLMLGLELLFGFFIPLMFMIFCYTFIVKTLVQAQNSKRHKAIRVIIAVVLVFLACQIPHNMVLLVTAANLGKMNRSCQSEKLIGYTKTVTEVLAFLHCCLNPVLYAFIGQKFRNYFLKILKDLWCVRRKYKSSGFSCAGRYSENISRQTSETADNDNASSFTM
Description: Human CCR6-CRE Reporter Assay
293FT cells were transfected with 2 constructs using TransIT-293 (Mirus). The first construct (pGL4.29, Promega) expressed the luciferase reporter gene luc2P in response to the binding of cAMP-induced CREB to the CREelement in its promoter. The second construct contained the open reading frame of human CCR6 in the pUNO1 backbone under the control of an enhanced CMV promoter (InVivoGen). 48 h after transfection, cells were harvested and diluted to 750,000 cells/ml in culture medium (DMEM, 10% FBS, 1× pen/strep (Gibco 15140)). Compounds were 2.5-fold serially diluted in DMSO. Further dilutions were made in assay medium (DMEM, 10% FBS, 1× pen/strep, 6 μM Forskolin, 6 nM CCL20). 4 μl of the compound solution was added to a white MW384 plate, followed by 20 μl of the cell suspension. Final DMSO concentration in the assay was 0.1%. The MW384 plate was placed in an incubator at 37° C., 5% CO2 for 5 h. Luciferase activity was determined by addition of 24 μl of a 2.5× diluted BriteLite luciferase solution (Perkin Elmer), followed by luminescence measurement using a VICTOR Plate reader (Perkin Elmer). […] The relative −Log IC50 was determined with GraphPad Prism 9 using a four-parameter dose-response model.

human CCR6 [2] = molecular target: T1, human CCR6; assay: CHO-K1 CCR6 chemotaxis assay towards CCL20; assay type: cell-based; conditions: relative -Log IC50; CHO-K1 cells overexpressing human CCR6; migration towards 100 ng/ml CCL20; 4 h
Source text: CHO-K1 CCR6 Chemotaxis Assay Towards CCL20
Cells overexpressing human CCR6 were used in the chemotaxis assay (DiscoverX, cAMP Hunter™ CHO-K1 CCR6 Gi Cell Line). Growth medium of these cells consisted of DMEM/F12, non-essential Amino acids (1×NEAA, Gibco 11140050), 10% FBS and 1× pen/strep (Gibco 15140). For the chemotaxis assay, Corning Transwell plates were used with a pore size of 8 m (Corning 351164). Cells were harvested using trypsin and diluted to 4*10^6 cells/ml in chemotaxis medium (DMEM, 0.25% BSA, pen/strep). Compounds were four-fold serially diluted in DMSO. Further dilutions were made in chemotaxis medium. Cells were incubated with test compounds for 30 min at 37° C. prior to initiation of the assay (2*10^6 cells/ml). Final DMSO concentration in the assay was 0.2%. Wells of the Transwell plates were filled with 200 μl chemotaxis medium containing 100 ng/ml CCL20 (R&D systems 360-MP). 50 μl of the cell/compound suspension was added to the inserts of the Transwell plates (100,000 cells/insert). The Transwell plates were placed in an incubator at 37° C., 5% CO2 for 4 h. After 4 h, the number of migrated cells was quantified using CellTiter Glo (Promega). Percentage inhibition values were calculated based on the low and high signal obtained with 0.2% DMSO in chemotaxis medium without and with CCL20, respectively. The relative −Log IC50 was determined with GraphPad Prism 9 using a four-parameter dose-response model.

SMILES	IC50 (human CCR6 [1]) [µM]	IC50 (human CCR6 [2]) [µM]
CC(C)c1cnc2ccc(-c3ccc(S(=N)(=O)[C@H]4CC[C@H](Nc5ccc(S(F)(F)(F)(F)F)cc5)CC4)cc3)cn12 (relative stereo) [Example 118, {4-[3-(propan-2-yl)imidazo[1,2-a]pyridin-6-yl]phenyl}[trans-4-{[4-(pentafluoro-λ^6-sulfanyl)phenyl]Amino}cyclohexyl](imino)-λ^6-sulfanone]	0.0794	0.398
N#Cc1c[nH]c2ccc(-c3ccc(S(=N)(=O)[C@H]4CC[C@H](Nc5ccc(S(F)(F)(F)(F)F)cc5)CC4)cc3)cc12 (single isomer, unassigned; (+)) [Example 126, (+)-5-(4-{[trans-4-{[4-(pentafluoro-λ^6-sulfanyl)phenyl]Amino}cyclohexyl]sulfonimidoyl}phenyl)-1H-indole-3-carbonitrile]	0.126	0.126
N=S(=O)(c1ccc(-c2ccc3nccn3c2)cc1)[C@H]1CC[C@H](Nc2ccc(S(F)(F)(F)(F)F)cc2)CC1 (single isomer, unassigned; (+)) [Example 128, (+)-(4-{imidazo[1,2-a]pyridin-6-yl}phenyl)[trans-4-{[4-(pentafluoro-λ^6-sulfanyl)phenyl]Amino}cyclohexyl](imino)-λ^6-sulfanone]	0.126	0.251
N#Cc1c[nH]c2ccc(-c3ccc(S(=N)(=O)[C@H]4CC[C@H](Nc5ccc(S(F)(F)(F)(F)F)cc5)CC4)cc3)cc12 (single isomer, unassigned; (-)) [Example 127, (−)-5-(4-{[trans-4-{[4-(pentafluoro-λ^6-sulfanyl)phenyl]Amino}cyclohexyl]sulfonimidoyl}phenyl)-1H-indole-3-carbonitrile]	0.316	0.251
N=S(=O)(c1ccc(-c2ccc3nccn3c2)cc1)[C@H]1CC[C@H](Nc2ccc(S(F)(F)(F)(F)F)cc2)CC1 (single isomer, unassigned; (-)) [Example 129, (−)-(4-{imidazo[1,2-a]pyridin-6-yl}phenyl)[trans-4-{[4-(pentafluoro-λ^6-sulfanyl)phenyl]Amino}cyclohexyl](imino)-λ^6-sulfanone]	0.2	0.316
NC(=O)c1cc(-c2ccc(S(=O)(=O)N3CC[C@H](Nc4ccc(S(F)(F)(F)(F)F)cc4)[C@@H](F)C3)cc2)ccn1 (stereo in doubt) [Example 83, 4-(4-{[(3S,4S)-3-fluoro-4-{[4-(pentafluoro-λ^6-sulfanyl)phenyl]Amino}piperidin-1-yl]sulfonyl}phenyl)pyridine-2-carboxamide]	0.316	0.0501
O=S(=O)(c1ccc(-c2ccc3nccn3c2)cc1)N1CCC(Nc2ccc(S(F)(F)(F)(F)F)cc2)CC1 [Example 1, 1-(4-{imidazo[1,2-a]pyridin-6-yl}benzenesulfonyl)-N-[4-(pentafluoro-λ^6-sulfanyl)phenyl]piperidin-4-amine]	0.126	0.0794
CN(C)C(=O)c1ccc(-c2ccc(S(=O)(=O)[C@H]3CC[C@H](Nc4ccc(S(F)(F)(F)(F)F)cc4)CC3)cc2)cc1 [Example 15, N,N-dimethyl-4′-{[trans-4-{[4-(pentafluoro-λ^6-sulfanyl)phenyl]Amino}cyclohexyl]sulfonyl}-[1,1′-biphenyl]-4-carboxamide]	0.0794	0.0631
O=C(NC1CC1)c1cccc(-c2ccc(S(=O)(=O)[C@H]3CC[C@H](Nc4ccc(S(F)(F)(F)(F)F)cc4)CC3)cc2)c1 [Example 144, N-cyclopropyl-4′-{[trans-4-{[4-(pentafluoro-λ^6-sulfanyl)phenyl]amino}cyclohexyl]sulfonyl}-[1,1′-biphenyl]-3-carboxamide]	0.0501	–
O=S(=O)(c1ccc(-c2ccc3nnc([C@@H]4CCNC4)n3c2)cc1)N1CCC(Nc2ccc(S(F)(F)(F)(F)F)cc2)CC1 [Example 165, N-[4-(pentafluoro-λ^6-sulfanyl)phenyl]-1-(4-{3-[(3R)-pyrrolidin-3-yl]-[1,2,4]triazolo[4,3-a]pyridin-6-yl}benzenesulfonyl)piperidin-4-amine]	0.794	–
O=S(=O)(c1ccc(-c2ccc3nnc([C@H]4CCNC4)n3c2)cc1)N1CCC(Nc2ccc(S(F)(F)(F)(F)F)cc2)CC1 [Example 166, N-[4-(pentafluoro-λ^6-sulfanyl)phenyl]-1-(4-{3-[(3S)-pyrrolidin-3-yl]-[1,2,4]triazolo[4,3-a]pyridin-6-yl}benzenesulfonyl)piperidin-4-amine]	0.794	–
CC(C)c1nnc2ccc(-c3ccc(S(=N)(=O)[C@H]4CC[C@H](Nc5ccc(S(F)(F)(F)(F)F)cn5)CC4)cc3)cn12 (stereo partly drawn) [Example 171, {4-[3-(propan-2-yl)-[1,2,4]triazolo[4,3-a]pyridin-6-yl]phenyl}[trans-4-{[5-(pentafluoro-λ^6-sulfanyl)pyridin-2-yl]amino}cyclohexyl](imino)-λ^6-sulfanone]	0.1	–
Cc1cc(-c2ccc(S(=O)(=O)[C@H]3CC[C@H](Nc4ccc(S(F)(F)(F)(F)F)cn4)CC3)cc2)cn2c(C(C)C)nnc12 [Example 181, 5-(pentafluoro-λ^6-sulfanyl)-N-[trans-4-{4-[8-methyl-3-(propan-2-yl)-[1,2,4]triazolo[4,3-a]pyridin-6-yl]benzenesulfonyl}cyclohexyl]pyridin-2-amine]	0.0251	–

Second part, the compound after the results:

IC50 (human CCR6 [1]) [µM]	IC50 (human CCR6 [2]) [µM]	SMILES
0.0794	0.00501	Cc1cnc2ccc(-c3ccc(S(=O)(=O)[C@H]4CC[C@H](Nc5ccc(S(F)(F)(F)(F)F)cc5)CC4)cc3)cn12 [Example 13, 4-(pentafluoro-λ^6-sulfanyl)-N-[trans-4-(4-{3-methylimidazo[1,2-a]pyridin-6-yl}benzenesulfonyl)cyclohexyl]aniline]
0.2	1.26	O=C1Cc2cc(-c3ccc(S(=O)(=O)[C@H]4CC[C@H](Nc5ccc(S(F)(F)(F)(F)F)cc5)CC4)cc3)ccc2N1 [Example 14, 5-(4-{[trans-4-{[4-(pentafluoro-λ^6-sulfanyl)phenyl]Amino}cyclohexyl]sulfonyl}phenyl)-2,3-dihydro-1H-indol-2-one]
0.0631	0.0126	CNC(=O)c1ccc(-c2ccc(S(=O)(=O)[C@H]3CC[C@H](Nc4ccc(S(F)(F)(F)(F)F)cc4)CC3)cc2)cc1 [Example 16, N-methyl-4′-{[trans-4-{[4-(pentafluoro-λ^6-sulfanyl)phenyl]Amino}cyclohexyl]sulfonyl}-[1,1′-biphenyl]-4-carboxamide]
1.58	–	O=S(=O)(c1ccc(-c2ncc3[nH]ccc3n2)cc1)[C@H]1CC[C@H](Nc2ccc(S(F)(F)(F)(F)F)cc2)CC1 [Example 145, 4-(pentafluoro-λ^6-sulfanyl)-N-[trans-4-(4-{5H-pyrrolo[3,2-d]pyrimidin-2-yl}benzenesulfonyl)cyclohexyl]aniline]
0.794	–	O=S(=O)(c1ccc(-c2cc3cc[nH]c3cn2)cc1)[C@H]1CC[C@H](Nc2ccc(S(F)(F)(F)(F)F)cc2)CC1 [Example 146, 4-(pentafluoro-λ^6-sulfanyl)-N-[trans-4-(4-{1H-pyrrolo[2,3-c]pyridin-5-yl}benzenesulfonyl)cyclohexyl]aniline]
0.0631	–	Cc1cc(-c2ccc(S(=O)(=O)[C@H]3CC[C@H](Nc4ccc(S(F)(F)(F)(F)F)cc4)CC3)cc2)cn2ccnc12 [Example 149, 4-(pentafluoro-λ^6-sulfanyl)-N-[trans-4-(4-{8-methylimidazo[1,2-a]pyridin-6-yl}benzenesulfonyl)cyclohexyl]aniline]
